Legend:
Test in all cases: relative viability (nuclei count vs DMSO), 5 days (fraction); higher = more cells survive
[1] = compound: C/C(=N\NC(=S)N1CCC1)/C2=CC=CC=N2 + CCNC(=O)c1noc(-c2cc(C(C)C)c(O)cc2O)c1-c1ccc(CN2CCOCC2)cc1 [Luminespib] (partner 0.01 µM)
How it was run: (§1)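 Nuclei were stained with Hoechst during a one-step fixation (final 0.05% Triton X-100, 1% formaldehyde, 1 ug/ml Hoechst) carried out 5 days after dosing, then counted on 4× images. The cells, lung cancer lines in 1536-well plates, had been dosed by pin tool the day after seeding with one drug alone or a fixed anchor-drug dose plus five library-drug doses (not always all listed) in √10 steps. Relative viability is the nuclei count in treated wells divided by that in vehicle wells, and each value is the median of duplicate plates.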

[2] = compound: C/C(=N\NC(=S)N1CCC1)/C2=CC=CC=N2 + CC(=O)c1c(C)c2cnc(Nc3ccc(N4CCNCC4)cn3)nc2n(C2CCCC2)c1=O [Palbociclib] (partner 0.5 µM)
How it was run: as §1

[3] = compound: C/C(=N\NC(=S)N1CCC1)/C2=CC=CC=N2 + CS(=O)(=O)N1CCN(Cc2cc3nc(-c4cccc5[nH]ncc45)nc(N4CCOCC4)c3s2)CC1 [Pictilisib] (partner 1 µM)
How it was run: as §1

[4] = compound: C/C(=N\NC(=S)N1CCC1)/C2=CC=CC=N2 + COc1cccc2cc(-c3nc([C@H]4CC[C@H](C(=O)O)CC4)n4ncnc(N)c34)[nH]c12 [OSI-027] (partner 0.5 µM)
How it was run: as §1

| Cell Line | relative viability ([1]; first compound 0.05 µM) | relative viability ([1]; first compound 0.1581 µM) | relative viability ([1]; first compound 0.5 µM) | relative viability ([1]; first compound 1.581 µM) | relative viability ([1]; first compound 5 µM) | relative viability ([2]; first compound 0.05 µM) | relative viability ([2]; first compound 0.1581 µM) | relative viability ([2]; first compound 0.5 µM) | relative viability ([2]; first compound 1.581 µM) | relative viability ([2]; first compound 5 µM) | relative viability ([3]; first compound 0.05 µM) | relative viability ([3]; first compound 0.1581 µM) | relative viability ([3]; first compound 0.5 µM) | relative viability ([3]; first compound 1.581 µM) | relative viability ([3]; first compound 5 µM) | relative viability ([4]; first compound 0.05 µM) | relative viability ([4]; first compound 0.1581 µM) | relative viability ([4]; first compound 0.5 µM) | relative viability ([4]; first compound 1.581 µM) | relative viability ([4]; first compound 5 µM) |
| --- | --- | --- | --- | --- | --- | --- | --- | --- | --- | --- | --- | --- | --- | --- | --- | --- | --- | --- | --- | --- |
| LCLC-97TM1 | 0.415 | 0.623 | 0.109 | 0.136 | 0.151 | 0.0948 | 0.223 | 0.0874 | 0.0867 | 0.0722 | 0.101 | 0.141 | 0.0914 | 0.117 | 0.101 | 0.111 | 0.175 | 0.185 | 0.138 | 0.158 |
| HARA | 0.124 | 0.121 | 0.0663 | 0.0648 | 0.0838 | 0.188 | 0.133 | 0.233 | 0.139 | 0.164 | 0.0923 | 0.0752 | 0.0784 | 0.0856 | 0.0671 | 0.0966 | 0.0611 | 0.0659 | 0.0562 | 0.0621 |
| HCC-78 | – | – | – | – | – | 0.355 | 0.368 | 0.273 | 0.329 | 0.323 | 0.184 | 0.176 | 0.119 | 0.163 | 0.153 | 0.299 | 0.354 | 0.332 | 0.237 | 0.23 |
| NCI-H1666 | 0.386 | 0.391 | 0.347 | 0.311 | 0.287 | 0.617 | 0.608 | 0.564 | 0.495 | 0.509 | 0.158 | 0.22 | 0.234 | 0.176 | 0.2 | 0.396 | 0.41 | 0.383 | 0.354 | 0.358 |
| NCI-H2347 | 0.263 | 0.238 | 0.213 | 0.251 | 0.235 | 0.323 | 0.305 | 0.282 | 0.277 | 0.29 | 0.275 | 0.311 | 0.286 | 0.275 | 0.253 | 0.242 | 0.208 | 0.255 | 0.234 | 0.218 |
| NCI-H838 | 0.111 | 0.15 | 0.132 | 0.125 | 0.14 | 0.161 | 0.165 | 0.158 | 0.129 | 0.13 | 0.172 | 0.207 | 0.167 | 0.102 | 0.157 | 0.167 | 0.179 | 0.19 | 0.129 | 0.142 |
| NCI-H2023 | 0.067 | 0.0631 | 0.0621 | 0.0569 | 0.0694 | 0.0715 | 0.0684 | 0.0648 | 0.0566 | 0.086 | 0.064 | 0.0997 | 0.084 | 0.0661 | 0.0904 | 0.0569 | 0.0687 | 0.0687 | 0.0508 | 0.0603 |
| 201T | 0.394 | 0.394 | 0.35 | 0.322 | 0.256 | 0.27 | 0.351 | 0.307 | 0.213 | 0.205 | 0.438 | 0.494 | 0.444 | 0.389 | 0.344 | 0.402 | 0.21 | 0.201 | 0.166 | 0.134 |
| NCI-H1915 | 0.126 | 0.108 | 0.111 | 0.121 | 0.107 | 0.166 | 0.159 | 0.138 | 0.12 | 0.124 | 0.208 | 0.189 | 0.17 | 0.144 | 0.153 | 0.184 | 0.165 | 0.176 | 0.179 | 0.163 |
| NCI-H2009 | 0.128 | 0.146 | 0.15 | 0.186 | 0.127 | 0.0949 | 0.102 | 0.108 | 0.112 | 0.0775 | 0.144 | 0.156 | 0.178 | 0.172 | 0.0975 | 0.0946 | 0.153 | 0.17 | 0.129 | 0.12 |
| BEN | 0.113 | 0.19 | 0.0969 | 0.12 | 0.0243 | 0.346 | 0.332 | 0.336 | 0.283 | 0.313 | 0.164 | 0.162 | 0.156 | 0.186 | 0.176 | 0.206 | 0.142 | 0.166 | 0.183 | 0.202 |
| PC-14 | 0.104 | 0.126 | 0.112 | 0.0879 | 0.095 | 0.0312 | 0.0553 | 0.052 | 0.0451 | 0.0402 | 0.0639 | 0.0478 | 0.0584 | 0.0411 | 0.0523 | 0.0306 | 0.0778 | 0.0467 | 0.041 | 0.0364 |
| SK-MES-1 | 0.169 | 0.155 | 0.175 | 0.152 | 0.189 | 0.221 | 0.2 | 0.2 | 0.174 | 0.177 | 0.168 | 0.174 | 0.153 | 0.139 | 0.162 | 0.197 | 0.182 | 0.157 | 0.137 | 0.186 |
| NCI-H727 | 0.249 | 0.337 | 0.294 | 0.346 | 0.34 | 0.346 | 0.393 | 0.363 | 0.314 | 0.439 | 0.236 | 0.195 | 0.154 | 0.15 | 0.139 | 0.229 | 0.258 | 0.289 | 0.244 | 0.364 |
| NCI-H1355 | 0.176 | 0.179 | 0.192 | 0.167 | 0.173 | 0.171 | 0.167 | 0.165 | 0.148 | 0.154 | 0.198 | 0.165 | 0.178 | 0.172 | 0.148 | 0.201 | 0.213 | 0.208 | 0.18 | 0.178 |
| NCI-H1975 | 0.118 | 0.148 | 0.206 | 0.107 | 0.151 | 0.105 | 0.106 | 0.105 | 0.11 | 0.131 | 0.123 | 0.136 | 0.127 | 0.131 | 0.136 | 0.137 | 0.119 | 0.116 | 0.105 | 0.11 |

Reference: the supplement of paper PMC10307832
